Laboratory results reported in ChEMBL document CHEMBL5518235, “Identification of Novel Series of Potent and Selective Relaxin Family Peptide Receptor 1 (RXFP1) Agonists” (J Med Chem, 2024).
pEC50: −log10 of the molar value. The source made the active and inactive calls. The rule behind the calls is not given here.

Legend:
[1] = Metabolic stability in human liver microsomes assessed as intrinsic clearance at 1 uM incubated for 30 mins in presence of NADPH by LC-MS/MS analysis; type: ADME, Microsome; conditions: for microsomal CLint at 1 µM: liver microsomes, read-out: CLH
[2] = molecular target: T1, Relaxin receptor 1 (Homo sapiens) (UniProt Q9HBX9); assay: Agonist activity at human RXFP1 expressed in T-Rex-CHO-K1 cells assessed as stimulation of cAMP production by measuring maximal efficacy at 50 uM incubated for 45 mins by HTRF assay relative to control; type: functional, cell-based; conditions: filed as agonist
T1 sequence (whole entry): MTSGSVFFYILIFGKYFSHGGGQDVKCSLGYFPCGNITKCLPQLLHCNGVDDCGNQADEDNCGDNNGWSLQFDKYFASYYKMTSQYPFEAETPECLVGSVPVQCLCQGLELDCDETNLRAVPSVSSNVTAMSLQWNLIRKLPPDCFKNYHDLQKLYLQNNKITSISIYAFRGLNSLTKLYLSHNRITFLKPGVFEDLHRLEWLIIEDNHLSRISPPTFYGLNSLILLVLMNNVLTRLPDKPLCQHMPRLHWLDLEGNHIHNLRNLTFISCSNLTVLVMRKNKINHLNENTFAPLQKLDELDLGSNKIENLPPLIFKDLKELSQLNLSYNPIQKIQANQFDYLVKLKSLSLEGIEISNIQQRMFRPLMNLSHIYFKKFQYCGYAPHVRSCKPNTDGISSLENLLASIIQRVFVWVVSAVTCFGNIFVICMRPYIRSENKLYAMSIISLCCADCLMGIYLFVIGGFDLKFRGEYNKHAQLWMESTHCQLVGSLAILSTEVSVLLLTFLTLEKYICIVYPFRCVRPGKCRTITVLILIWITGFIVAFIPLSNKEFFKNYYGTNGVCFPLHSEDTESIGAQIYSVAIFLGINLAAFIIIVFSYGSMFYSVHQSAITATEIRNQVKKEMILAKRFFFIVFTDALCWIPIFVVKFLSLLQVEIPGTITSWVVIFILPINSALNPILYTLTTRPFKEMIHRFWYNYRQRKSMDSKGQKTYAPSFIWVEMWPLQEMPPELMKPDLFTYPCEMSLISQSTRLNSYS

[3] = Lipophilicity, logD of the compound in 1-octanol and phosphate buffer at pH 7.4 incubated for 3 hrs by shake flask method based LC/MS/MS analysis; type: physicochemical; conditions: for logD at 3 h: 1-octanol/phosphate buffer, pH 7.4
[4] = Metabolic stability in human liver microsomes assessed as unbound intrinsic clearance at 1 uM incubated for 30 mins in presence of NADPH by LC-MS/MS analysis; type: ADME, Microsome; conditions: 0.5 h
Relaxin receptor 1 = molecular target: T2, Relaxin receptor 1 (Homo sapiens, UniProt Q9HBX9); assay: (§1) Agonist activity at human RXFP1 expressed in T-Rex-CHO-K1 cells assessed as stimulation of cAMP production incubated for 45 mins by HTRF assay; type: functional, cell-based
T2 sequence (Q9HBX9 whole entry): T1 sequence (whole entry)

[5] = Metabolic stability in cryopreserved human hepatocytes assessed as unbound intrinsic clearance measured per 10^6 cells at 1 uM measured after 120 mins by LC-MS/MS analysis; type: ADME, cell-based, Hepatocyte; conditions: 2 h
[6] = Metabolic stability in cryopreserved human hepatocytes assessed as intrinsic clearance measured per 10^6 cells at 1 uM after 120 mins by LC-MS/MS analysis; type: ADME, cell-based, Hepatocyte; conditions: cryopreserved hepatocytes, read-out: CLH
[7] = molecular target: T3, Relaxin receptor 1 (Rattus norvegicus) (UniProt Q6R6I6); assay: Agonist activity at rat RXFP1 expressed in T-Rex-CHO-K1 cells assessed as stimulation of cAMP production at 40 uM incubated for 45 mins by HTRF assay; type: functional, cell-based
T3 sequence (whole entry): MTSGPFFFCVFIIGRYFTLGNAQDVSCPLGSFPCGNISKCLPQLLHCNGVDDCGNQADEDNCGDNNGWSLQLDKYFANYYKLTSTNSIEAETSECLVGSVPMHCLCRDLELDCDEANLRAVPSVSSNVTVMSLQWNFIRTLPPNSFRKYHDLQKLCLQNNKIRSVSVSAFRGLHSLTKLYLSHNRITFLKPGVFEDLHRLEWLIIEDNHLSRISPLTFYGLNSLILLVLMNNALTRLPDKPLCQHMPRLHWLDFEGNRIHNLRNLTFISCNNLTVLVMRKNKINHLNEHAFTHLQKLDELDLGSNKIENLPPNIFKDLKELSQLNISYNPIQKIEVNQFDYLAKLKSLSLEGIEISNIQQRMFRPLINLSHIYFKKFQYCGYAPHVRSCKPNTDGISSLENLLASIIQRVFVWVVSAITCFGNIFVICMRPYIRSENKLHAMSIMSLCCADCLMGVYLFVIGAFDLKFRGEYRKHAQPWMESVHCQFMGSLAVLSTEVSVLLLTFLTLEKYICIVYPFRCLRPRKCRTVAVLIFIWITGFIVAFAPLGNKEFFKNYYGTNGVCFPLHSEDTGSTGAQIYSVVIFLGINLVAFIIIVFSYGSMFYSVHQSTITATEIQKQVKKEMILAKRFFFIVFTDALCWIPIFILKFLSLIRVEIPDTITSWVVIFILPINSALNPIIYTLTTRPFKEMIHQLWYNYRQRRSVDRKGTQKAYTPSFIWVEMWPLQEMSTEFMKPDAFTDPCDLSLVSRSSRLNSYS

[8] = molecular target: T1, Relaxin receptor 1 (Homo sapiens); assay: as §1; type: functional, cell-based
[9] = molecular target: T1, Relaxin receptor 1 (Homo sapiens); assay: Displacement of [125I]relaxin H2 from human RXFP1 expressed in CHO cells incubated for 90 mins by radioligand binding assay; type: cell-based
[10] = molecular target: T1, Relaxin receptor 1 (Homo sapiens); assay: Agonist activity at human RXFP1 expressed in T-Rex-CHO-K1 cells assessed as stimulation of cAMP production at 50 uM incubated for 45 mins by HTRF assay relative to control; type: functional, cell-based; conditions: filed as agonist
[11] = Metabolic stability in Han Wistar rat hepatocytes assessed as intrinsic clearance measured per 10^6 cells at 1 uM after 120 mins by LC-MS/MS analysis; type: ADME, cell-based, Hepatocyte; conditions: read-out: CLH
[12] = Metabolic stability in Han Wistar rat hepatocytes assessed as unbound intrinsic clearance measured per 10^6 cells at 1 uM after 120 mins by LC-MS/MS analysis; type: ADME, cell-based, Hepatocyte; conditions: 2 h
[13] = Half-life in Han Wistar rat at 0.76 micromol/kg, iv by LC-MS/MS analysis; type: ADME, organism-based; conditions: in vivo, dose 0.76 µmol/kg
[14] = Protein binding in rat plasma assessed as free fraction at 5 uM incubated for 18 hrs by equilibrium dialysis based LC-MS/MS analysis; type: ADME, cell-free
[15] = Volume of distribution at steady state in Han Wistar rat at 0.76 micromol/kg, iv by LC-MS/MS analysis; type: ADME, organism-based; conditions: in vivo, dose 0.76 µmol/kg, read-out: Vdss
[16] = Clearance in Han Wistar rat at 0.76 micromol/kg, iv by LC-MS/MS analysis; type: ADME, organism-based; conditions: in vivo, dose 0.76 µmol/kg

Compound | microsomal CLint at 1 µM [1] | Emax [2] | logD at 3 h [3] | CL free [4] | pEC50 (Relaxin receptor 1) | CL free [5] | hepatocyte CLint at 1 µM [6] | other results
COc1cc(F)c(-c2ccc(S(N)(=O)=O)cc2)cc1C(=O)N[C@@H]1[C@H]2CC[C@H](C2)[C@@H]1C(=O)Nc1cccc(S(=O)(=O)C(F)(F)F)c1 | 74 µL/min/mg | 109% | > 3.7 | 92000 µL/min/mg | 6.60 | 7.8 10^3uL/min | 18 µL/min/1e6 cells | 
COc1cc(F)c(-c2ccc(C(=O)O)cc2)cc1C(=O)Nc1ccccc1C(=O)Nc1cccc(S(=O)(=O)C(F)(F)F)c1 | < 3 µL/min/mg | 115% | > 3.9 | < 333 µL/min/mg | 6.70 | 3.9 10^3uL/min | 11 µL/min/1e6 cells | 
COc1ccccc1C(=O)Nc1ccccc1C(=O)Nc1cccc(S(=O)(=O)C(F)(F)F)c1 | 12 µL/min/mg | 153% | > 4 | 3.7 10^3uL/min/mg | 5.50 | 0.96 10^3uL/min | 6.7 µL/min/1e6 cells | 
COc1ccccc1C(=O)N[C@H]1[C@@H](C(=O)Nc2cccc(S(=O)(=O)C(F)(F)F)c2)[C@@H]2C=C[C@H]1C2 | 44 µL/min/mg | 108% | 4.4 | > 29 10^3uL/min/mg | 5.60 | 1.8 10^3uL/min | 8.9 µL/min/1e6 cells | 
COc1cc(F)c(O[C@H]2CC[C@@H](C(=O)O)CC2)cc1C(=O)N[C@H]1[C@@H](C(=O)Nc2ccc(F)c(C(F)(F)F)c2)[C@@H]2C=C[C@H]1C2 |  | 124% | 3.55 |  | 7.80 | 175 µL/min | 7.7 µL/min/1e6 cells | Activity [9]: inactive
COc1ccccc1C(=O)N[C@@H]1CCCC[C@@H]1C(=O)Nc1cccc(S(=O)(=O)C(F)(F)F)c1 (racemic) | 242 µL/min/mg |  | 4.4 | 6.3 10^3uL/min/mg |  |  |  | Activity [8]: inactive
COc1ccccc1C(=O)N[C@H]1CN(C)C[C@H]1C(=O)Nc1cccc(S(=O)(=O)C(F)(F)F)c1 (racemic) | 173 µL/min/mg |  | 3.5 | 0.98 10^3uL/min/mg |  |  |  | Activity [8]: inactive
O=C(O)c1ccc(-c2cc(C(=O)N[C@H]3[C@@H](C(=O)Nc4cccc(S(=O)(=O)C(F)(F)F)c4)[C@@H]4C=C[C@H]3C4)ccc2F)cc1 (racemic) |  |  |  |  | < 4.30 |  |  | Activity [10]: 57%

The next lines start with results.

microsomal CLint at 1 µM [1] | Emax [2] | logD at 3 h [3] | CL free [4] | pEC50 (Relaxin receptor 1) | CL free [5] | hepatocyte CLint at 1 µM [6] | Compound | other results
16 µL/min/mg | 103% | 3.6 | 314 µL/min/mg | 6.80 | 1.3 10^3uL/min | 32 µL/min/1e6 cells | COc1cc(F)c(-c2ccc(C(=O)O)cc2)cc1C(=O)N[C@@H]1[C@H]2CC[C@H](C2)[C@@H]1C(=O)Nc1cccc(S(=O)(=O)C(F)(F)F)c1 | 
< 3 µL/min/mg | 103% | 3.7 | < 64 µL/min/mg | 6.80 | 277 µL/min | 5.4 µL/min/1e6 cells | COc1cc(F)c(-c2cccc(C(=O)O)c2)cc1C(=O)N[C@H]1[C@@H](C(=O)Nc2cccc(S(=O)(=O)C(F)(F)F)c2)[C@@H]2C=C[C@H]1C2 | 
110 µL/min/mg | 93% | > 3.9 | 92 10^3uL/min/mg | 6.04 |  |  | COc1cc(F)c(-c2ccccc2)cc1C(=O)N[C@@H]1[C@H](C(=O)Nc2cccc(S(=O)(=O)C(F)(F)F)c2)[C@H]2C=C[C@@H]1C2 (racemic) | 
 | 92% |  |  |  |  |  | COc1cc(F)c(-c2ccc(C(=O)O)cc2)cc1C(=O)N[C@H]1[C@@H](C(=O)Nc2cccc(S(=O)(=O)C(F)(F)F)c2)[C@@H]2C=C[C@H]1C2 (racemic) [listing 1 of 2 here] | Activity [7]: inactive
 |  |  | 100 µL/min/mg | 6.80 | 334 µL/min | 11.7 µL/min/1e6 cells | COc1cc(F)c(-c2ccc(C(=O)O)cc2)cc1C(=O)N[C@H]1[C@@H](C(=O)Nc2cccc(S(=O)(=O)C(F)(F)F)c2)[C@@H]2C=C[C@H]1C2 | CLH ([1]; microsomes, 0.5 h, 1 µM): 7.2 µL/min/mg; logD ([3]; octanol/water, pH 7.4, 3 h, 3 h): 3.8
9.9 µL/min/mg |  | 3.8 | 150 µL/min/mg |  | 484 µL/min | 9.2 µL/min/1e6 cells | COc1cc(F)c(-c2ccc(C(=O)O)cc2)cc1C(=O)N[C@@H]1[C@H](C(=O)Nc2cccc(S(=O)(=O)C(F)(F)F)c2)[C@H]2C=C[C@@H]1C2 | Activity [8]: inactive
4.6 µL/min/mg | 110% | 3.2 | 111 µL/min/mg | 7.10 | 295 µL/min | 6.5 µL/min/1e6 cells | COc1cc(F)c(-c2ccc(CC(=O)O)cc2)cc1C(=O)N[C@H]1[C@@H](C(=O)Nc2cccc(S(=O)(=O)C(F)(F)F)c2)[C@@H]2C=C[C@H]1C2 (racemic) | 
6.3 µL/min/mg |  | 3.4 | 121 µL/min/mg | 6.70 |  |  | COc1cc(F)c(-c2ccc(C(=O)O)cc2)cc1C(=O)N[C@H]1[C@@H](C(=O)Nc2cccc(S(=O)(=O)C(F)(F)F)c2)[C@@H]2C=C[C@H]1C2 (racemic) [listing 2 of 2 here] | hepatocyte CLint at 1 µM [11]: 16 µL/min/1e6 cells; CL free [12]: 457 µL/min; half-life [13]: 22.2 min; fraction unbound at 18 h, 5 µM [14]: 0.0031; Vd [15]: 0.92 L/kg; clearance [16]: 73 mL/min/kg
